Experiments:
[1] = tested on: Ngn3+ endocrine progenitor cells; assay: Ngn3+ cells in embryonic pancreas explants (E12.5) cultured in vitro; format: cell-based, mouse; settings: for number of Ngn3+ endocrine progenitor cells: E12.5 explants, recombinant protein 10 μg/mL, 72 hours vs buffer
Protocol: Isolation and culture of embryonic pancreas explants. The isolation and culture of embryonic pancreas explants was performed as described elsewhere, with minor modifications.
Processing of pancreatic tissue for immunofluorescence microscopy. The pancreatic tissues were isolated and fixed either overnight (adult pancreases), or for one hour (embryonic pancreas explants), in 2% PFA (pH 7.4), followed by a two-step saturation process: first in a 30% sucrose solution in PBS and then in optimal cutting temperature (OCT) compound. After complete saturation, the tissues were imbedded in OCT using Cryomold and then snap frozen in an ethanol/dry ice bath. The OCT blocks were serially cut through the entire organ to obtain representative sections every 600 μm (6 to 8 sections per adult pancreas), 50 μm (12 to 14 sections per E16.5 embryonic pancreas), 35 μm (10 to 12 sections per E14.5 embryonic pancreas), or 15 μm (10 to 12 sections per E12.5 embryonic pancreas cultured for 1 to 3 days). For the embryonic linage tracing experiments, three largest sections were taken for the analysis. For all other experiments involving immunofluorescence microscopy, all obtained sections were analyzed. […]
The sections from the pancreases of embryos at age E14.5 and E16.5, and newborn pups (OP), were stained with anti-Ngn3 antibody to determine the total number of endocrine progenitors cells for all sections per explant combined (FIG. 9G, FIG. 17A). Alternatively, the sections representing the pancreases of embryos at age E12.5 (which are considerably smaller) were stained with both anti-Ngn3 and anti-CK19 antibodies to determine the fraction of CK19-positive area that was occupied by Ngn3− positive staining (FIGS. 9D, 10A, 10C, 12D, 12G, 12J and FIGS. 15A, 20B). The following formula was used to adjust for any differences in the pancreas size: (Ngn3^+ cell number/μm^2 of CK19^+ cells)×10^5.
Image analysis. Embryonic images were processed with a plugin-Trainable Weka Segmentation v3.2.28 (Hamilton, New Zealand) for ImageJ v.1.52jv software. To classify and quantify the images in unbiased fashion, we defined the following four classes for the analysis: Ngn3^+ cells, the clusters of cytokeratin 19^+ cells, the negatively stained areas, and background (e.g., the area outside of tissue sample). Alternatively, the Visiopharm version 6.0 software (Visiopharm, Hoerholm, Denmark) with Author module was used to create applications to outline Ngn3^+ cells or double positive cells expressing YFP and insulin using preprocessing and postprocessing steps, when necessary. In addition, the Engine module of the Visiophram module was used to execute created applications and unbiasedly analyze the images. For the unbiased quantitative analysis of β-cells and islets in the whole pancreatic sections, Visiopharm Author module was trained to recognize insulin-positive β-cell clusters with diameter greater than 50 μm as well as negatively stained section area. In all studies involving microscopy the treatment assignments were blinded to investigators who performed data analysis.

Notch1 receptor = assay: Examination of Notch1 receptor in embryonic pancreas (Western blot, flow cytometry, qPCR); format: cell-based, mouse
Protocol: Staining for flow cytometry. BD LSRFortessa X-20, LSR-II and FACSCanto-II were used for FACS analysis. Positive populations of cells were gated and counted using FlowJo ver.10 software. For the islet cells isolated from adult mice, intracellular staining to detect glucagon and insulin was used to count single-positive as well as double-negative cells. In the cells isolated from embryonic pancreas explants, intracellular staining was performed to detect Ngn3, CK19, and active Notch, and extracellular staining was used to detect the extracellular Notch domain, EpCAM, CD31 and CD45.
Western blotting. Pancreatic tissues were processed from E16.5 embryos as single samples and directly used for lysis. Embryonic pancreas explants from E12.5 embryos were cultured in vitro with anti-serpinB13 mAb (or control Ab) for 24 or 48 hours, then, three explant cultures were combined and lysed. The samples were washed two times in ice-cold PBS and lysed with gentle pipetting for 10 minutes with additional tap-vortexing for 15 minutes in RIPA buffer containing Halt protease inhibitors (cat. no. 1862209, Thermo Fisher Scientific). Equal amounts of protein in each sample were run under reducing conditions on Bis-Tris BOLT gradient gel (4-12%) or NUPAGE Tris-acetate gradient gels (4-12%) (both from Thermo Fisher Scientific), and transferred onto […] nitrocellulose or activated PVDF membranes. The membranes were blocked with 5% skim milk and stained with primary and secondary antibodies, as indicated. The Western blots were developed with SuperSignal West Pico Chemiluminescent Substrate or West Femto Maximum Sensitivity Substrate (cat. nos. […] and […], respectively; both from Thermo Scientific), and scanned using the ChemiDoc™ MP Imaging System (Bio-Rad, Hercules, […], USA).
Quantitative real-time PCR. Total RNA from embryonic pancreases was extracted using the RNeasy UCP Micro kit (cat. no. 73934; Qiagen, Hilden, Germany) to measure expression of the Notch1 gene. One hundred to […] of the total RNA per group was reverse transcribed to cDNA using the iScript cDNA Synthesis Kit (cat. no. 1708891; Bio-Rad). Quantitative PCR assays were performed on an Applied Biosystems QuantStudio 3 real-time PCR system using cDNA and the Kapa Sybr Fast reagent (cat. no. 0795959100; Roche). Actin-R was used as a reference gene. The primer sequence for Notch1 was as follows: forward—5′[…]3′ and reverse—5′ […]3′.

Molecule | number of Ngn3+ endocrine progenitor cells [1] | also measured
chicken ovalbumin: non-inhibitory structural homolog and founding member of the clade B serpin family, used as control [reference compound] | not | –
CC(C)C[C@H](NC(=O)[C@H]1O[C@@H]1C(=O)O)C(=O)NCCCCN=C(N)N [Clone E64, reference compound] | – | size of the Ngn3+ cell population ([1]; E12.5 WT explants, E64 10 μM, 48 hours vs DMSO): significantly reduced; mAb-induced Notch1 degradation fragments in presence of protease inhibitor (Notch1 receptor; E64 1 μM with antibody for 48 hours): almost completely prevented
recombinant CatL: recombinant mouse cathepsin L | – | Ngn3 cells ([1]; recombinant mouse cathepsin L 2.5 μg/mL for 4 hours vs buffer): induced additional; cleavage of the extracellular domain of Notch1 (Notch1 receptor; recombinant CatL 2.5 μg/mL for last 4 hours of 48-hour incubation): cleaved
recombinant serpinB13 protein: recombinant serpinB13 (mouse and human not distinguished at this place) (protein) MDSLGAVSTRLGFDLFKELKKTNDGNIFFSPVGILTAIGMVLLGTRGATASQLEEVFHSEKETKSSRIKAEEKEVIENTEAVHQQFQKFLTEISKLTNDYELNITNRLFGEKTYLFLQKYLDYVEKYYHASLEPVDFVNAADESRKKINSWVESKTNEKIKDLFPDGSISSSTKLVLVNMVYFKGQWDREFKKENTKEEKFWMNKSTSKSVQMMTQSHSFSFTFLEDLQAKILGIPYKNNDLSMFVLLPNDIDGLEKIIDKISPEKLVEWTSPGHMEERKVNLHLPRFEVEDGYDLEAVLAAMGMGDAFSEHKADYSGMSSGSGLYAQKFLHSSFVAVTEEGTEAAAATGIGFTVTSAPGHENVHCNHPFLFFIRHNESNSILFFGRFSSP | downregulate | –
human recombinant serpinB13: recombinant human serpinB13 expressed in baculovirus (protein) MDSLGAVSTRLGFDLFKELKKTNDGNIFFSPVGILTAIGMVLLGTRGATASQLEEVFHSEKETKSSRIKAEEKEVIENTEAVHQQFQKFLTEISKLTNDYELNITNRLFGEKTYLFLQKYLDYVEKYYHASLEPVDFVNAADESRKKINSWVESKTNEKIKDLFPDGSISSSTKLVLVNMVYFKGQWDREFKKENTKEEKFWMNKSTSKSVQMMTQSHSFSFTFLEDLQAKILGIPYKNNDLSMFVLLPNDIDGLEKIIDKISPEKLVEWTSPGHMEERKVNLHLPRFEVEDGYDLEAVLAAMGMGDAFSEHKADYSGMSSGSGLYAQKFLHSSFVAVTEEGTEAAAATGIGFTVTSAPGHENVHCNHPFLFFIRHNESNSILFFGRFSSP | significant drop | –
mouse recombinant serpinB13: recombinant serpinB13 of mouse (protein) MDSLGTAATQFLFDLFKELNKTNDGNVFFSPVGISTAIGMIILGTRGATASELQKVLYTEQGTESSRIKSEEEEIEKREEIHHQLQMLLTEISKFSNDYDLIISNRLFGEKTYLFLQKYIDYVEKYYHASLEPVDFVNAADESRKKINSWVESQTNVKVKDLFPEGSLNSSTKLVLINTVYFKGLWDREFKKEHTKEEDFWLNKNLSKPVQMMALCSSFNFTFLEDLQAKIVGIPYKNNDISMFVLLPNDIDGLEKIMDKMSPEKLVEWTSPGHLEQRRVDLRLPRLQVEETYDLEPVLEAVGIHSAFSEHADYSGMSARSGLHAQNFLHRSFLVVTEEGVEATAGTGVGLKVSSAASCELVHCNHPFLFFIRHRESDSILFFGKFSSP | significant drop | –

Source: patent US12441811B2, “Compositions and methods for treating serpin B13 disorders” (REGENTS OF THE UNIVERSITY OF MINNESOTA, priority 2019, dated 2025)
